Laboratory results reported in the PolyMetriX glass transition set.
± gives the standard deviation of the reports.

SMILES | glass transition temperature [°C]
*COC(=O)NCc1ccc(CNC(=O)OCc2ccc(*)o2)o1 (repeat unit) | 75.00
*CC(COCCOCCOC)O* (repeat unit) | -57.00
*OC(CCc1ccccc1)CC(*)=O (repeat unit) | 18.00
*CC(*)(C)C(=O)OC1CC2CCC1(C)C2(C)C (repeat unit) | 180.50
*C(=O)Nc1cccc(Oc2cccc(Oc3cccc(Oc4cccc(Oc5cccc(NC(=O)c6ccc7c(c6)C(=O)N(c6cccc(Oc8cccc(Oc9cccc(N%10C(=O)c%11ccc(*)cc%11C%10=O)c9)c8C#N)c6)C7=O)c5)c4C#N)c3)c2C#N)c1 (repeat unit) | 193.00
*CC(*)C(=O)OCCCCCC (repeat unit) | -57.00
*CCN(CCOC(=O)Nc1ccc(C)c(NC(=O)O*)c1)c1ccc(/C=C2/NC(=O)NC2=O)cc1 (repeat unit) | 178.00
*CC(*)(C)C(=O)OCCOCCOCC1COCCOCCOCCO1 (repeat unit) | 10.00
*Oc1ccc(C(C)(C)c2ccc(OC(=O)OCCN(CCOC(*)=O)c3ccc(OC)cc3)cc2)cc1 (repeat unit) | 60.00
*CC(*)C(=O)OC(C)(C)C (repeat unit) [Poly(t-butyl acrylate)] | 41 ± 0.9
*CC(=O)Nc1ccc(NC(=O)CN2C(=O)c3ccc(C(=O)c4ccc5c(c4)C(=O)N(*)C5=O)cc3C2=O)cc1 (repeat unit) | 250.00
*CC(OCC(C)C)C1(C)C(=O)OC(=O)C1(*)C (repeat unit) | 219.00
*CC1CCC(CNC(=O)CCCCCCCCC(=O)N*)CC1 (repeat unit) | 89.00
*CCCCCCCCNC(=O)CCP(C)(=O)CCC(=O)N* (repeat unit) | 52.00
*Oc1ccc(CC(NC(=O)Cc2ccc(OC(=O)CCC(*)=O)cc2)C(=O)OCCCCCC)cc1 (repeat unit) | 59.00
*c1ccc(N2C(=O)CC(C3C=C(C)C4C(=O)N(*)C(=O)C4C3)C2=O)cc1 (repeat unit) | 327.00
*CCOc1ccc(S(=O)(=O)c2ccc(OCCOP(=O)(O*)Oc3ccc(OC)cc3)cc2)cc1 (repeat unit) | 52.00
*C(F)(F)C1(F)C(F)(F)C(*)(F)C(F)(F)C(F)(F)C(F)(F)C1(F)F (repeat unit) | 198.00
*CC(COCC=C)O* (repeat unit) [poly(allyl glycidyl ether)] | -35.33 ± 57
*CC(*)C(=O)NCCCCCC(=O)O (repeat unit) | 68.00
*c1sc(*)c(CCCCCCN(CC)c2ccc(/N=N/c3ccc([N+](=O)[O-])cc3)cc2)c1CCCCCC (repeat unit) | 17.00
*OP(=O)(Oc1ccc(C(C)(C)c2ccc(*)cc2)cc1)OC1CCCCC1 (repeat unit) | 86.00

SMILES | glass transition temperature [°C]
*CC(CS(=O)(=O)CCC)O* (repeat unit) | 43.00
*CC(*)C(=O)n1c2ccccc2c2ccccc21 (repeat unit) | 50.10
*c1ccc2c(c1)C(=O)N(c1c(C)cc(C(c3cc(C)c(N4C(=O)c5ccc(C(*)(C(F)(F)F)C(F)(F)F)cc5C4=O)c(C)c3)c3cccc4ccccc34)cc1C)C2=O (repeat unit) | 314.00
*CC(*)c1ccc(CCl)cc1 (repeat unit) | 113.50
*CCCCCCCCCCOC(=O)c1ccc(C(=O)O*)cc1 (repeat unit) | 10.50
*O[Si](*)(C)CCCOCCOCCOc1ccc(COc2ccc3cc(C#N)ccc3c2)cc1 (repeat unit) | 30.00
*C(=O)OCCOC(=O)c1ccc(C(=O)OCCOC(=O)N2CCN(*)CC2)cc1 (repeat unit) | 53.00
*c1ccc(-c2ccc(N3C(=O)c4ccc(S(=O)(=O)c5ccc6c(c5)C(=O)N(*)C6=O)cc4C3=O)cc2C(F)(F)F)c(C(F)(F)F)c1 (repeat unit) | 320.00
*C(F)(F)C(*)(OC(F)(F)F)OC(F)(F)F (repeat unit) | -60.00
*OC(=O)C(CCSC)NC(=O)CCCCC(=O)NC(CCSC)C(=O)OC1COC2C(*)COC12 (repeat unit) | 71.00
*C(=O)c1ccc2c(c1)C(=O)N(c1ccc(Cc3ccc(N4C(=O)c5ccc(*)cc5C4=O)c(C(C)(C)C)c3)cc1C(C)(C)C)C2=O (repeat unit) | 213.00
*CC(*)C1CCC(C(C)(C)C)CC1 (repeat unit) | 131.00
*CCCNC(=O)CNC(=O)C(Cc1ccccc1)NC(=O)CCCCCCCCC(=O)NC(Cc1ccccc1)C(=O)NCC(=O)NCCCOCCOCCO* (repeat unit) | 36.00
*c1ccc(-c2nc3cc(S(=O)(=O)c4ccc5nc(-c6ccccc6)c(-c6ccc(-n7c(=O)c8cc9c(=O)n(*)c(=O)c9cc8c7=O)cc6)nc5c4)ccc3nc2-c2ccccc2)cc1 (repeat unit) | 186.00
*/C=C/CCCCCCCCCC(Cl)CCCCCCCCC* (repeat unit) | -37.00
*Oc1ccc(CC(NC(=O)CCc2ccc(OC(=O)CCCCCCCCC(*)=O)cc2)C(=O)OC(C)CC)cc1 (repeat unit) | 36.00
*CCCCCCOC(=O)OCCCCCCOC(=O)OCCCCCCN1C(=O)c2ccc(C(=O)c3ccc4c(c3)C(=O)N(*)C4=O)cc2C1=O (repeat unit) | 40.00
*c1ccc(-c2nc3cc4sc(*)nc4cc3s2)cc1 (repeat unit) | 25.00
*CC(*)(C)C(=O)OCCCn1c2ccccc2c2ccccc21 (repeat unit) | 113.00
*c1ccc(Oc2ccc(C(c3ccc(Oc4ccc(-n5c(=O)c6cc7c(=O)n(*)c(=O)c7cc6c5=O)cc4C(F)(F)F)cc3)(C(F)(F)F)C(F)(F)F)cc2)c(C(F)(F)F)c1 (repeat unit) | 253.00
*C1CCC(CC2CCC(N3C(=O)c4ccc(Oc5ccc6c(c5)C(=O)N(*)C6=O)cc4C3=O)C(C)C2)CC1C (repeat unit) | 250.00
*Oc1cccc(NC(=O)CCCCCC(=O)Nc2ccc(*)cc2)c1 (repeat unit) | 130.00

Results, then the compound that gave them:

glass transition temperature [°C] | SMILES
217.00 | *c1ccc(Oc2c(C)cc(C(c3cccnc3)c3cc(C)c(Oc4ccc(N5C(=O)CC(Nc6cccc(NC7CC(=O)N(*)C7=O)c6)C5=O)cc4)c(C)c3)cc2C)cc1 (repeat unit)
252.50 | *c1ccc(Oc2ccc(-c3c(-c4ccccc4)nc4ccc(Oc5ccc6nc(-c7ccccc7)c(*)c(-c7ccccc7)c6c5)cc4c3-c3ccccc3)cc2)cc1 (repeat unit)
180.00 | *CCCCOC(=O)c1ccc(-c2ccc(-c3ccc(C(=O)O*)cc3)cc2)cc1 (repeat unit)
213.50 | *c1ccc(C(=O)c2ccc(C(=O)c3ccc(S(*)(=O)=O)cc3)cc2)cc1 (repeat unit)
47.00 | *C(=O)OCCCCCCCCCCCCOC(=O)c1ccc(N2C(=O)c3ccc(*)cc3C2=O)cc1 (repeat unit)
237.00 | *Oc1ccc(C2(c3ccc(Oc4ccc(-c5ccc(-c6ccc(*)c(C(F)(F)F)c6)cc5)cc4C(F)(F)F)cc3)c3ccccc3-c3ccccc32)cc1 (repeat unit)
282.00 | *c1ccc(OC(=O)c2ccc(C(=O)Oc3ccc(C4(*)c5ccccc5C(=O)N4C)cc3)cc2)cc1 (repeat unit)
50.00 | *CC(*)(C)C(=O)OCCCCCCOc1ccc(C(=O)Oc2ccc(/N=N/c3ccc(Cl)cc3)c3ccccc23)cc1 (repeat unit)
84.00 | *CC(*)(C)C(=O)OCCCOc1ccc2cc(C(=O)Oc3ccccc3)ccc2c1 (repeat unit)
223.2 | *c1cccc(Oc2ccc(S(=O)(=O)c3ccc(Oc4cccc(-n5c(=O)c6cc7c(=O)n(*)c(=O)c7cc6c5=O)c4)cc3)cc2)c1 (repeat unit)
274.00 | *c1ccc(Oc2ccc(Oc3ccc(N4C(=O)c5ccc(-c6ccc7c(c6)C(=O)N(*)C7=O)cc5C4=O)cc3)c(C(C)(C)C)c2)cc1 (repeat unit)
12.00 | *CC(*)(C)C(=O)OCCCCCCCCCCCCOc1ccc2cc(C(=O)Oc3ccccc3)ccc2c1 (repeat unit)
140.00 | *c1ccc(Oc2ccc(C(=O)c3cccc(C(=O)c4ccc(Oc5ccc(-c6c7c(c(*)c8ccccc68)C(=O)N(CCCCCCCCCCCC)C7=O)cc5)cc4)c3)cc2)cc1 (repeat unit)
196.00 | *c1ccc(CCc2ccc(N3C(=O)C(=O)N(*)C3=O)cc2)cc1 (repeat unit)
253.50 | *c1ccc(Oc2cc3ccccc3cc2Oc2ccc(N3C(=O)c4ccc(-c5ccc6c(c5)C(=O)N(*)C6=O)cc4C3=O)cc2)cc1 (repeat unit)
47.00 | *CCCCCCCCOC(=O)c1ccc(-c2ccc(C(=O)O*)cc2)cc1 (repeat unit)
289.50 | *c1ccc(C(=O)Nc2ccc(Oc3ccc(Oc4ccc(NC(=O)c5ccc(Oc6ccc(-c7nn(*)c(=O)c8ccccc78)c7ccccc67)cc5)cc4)cc3)cc2)cc1 (repeat unit)
252.00 | *Oc1ccc(C2(c3ccc(Oc4ccc(C(=O)c5ccc(*)cc5)cc4)cc3)c3ccccc3-c3ccccc32)cc1 (repeat unit)
74.31 | *CCCCCCC(=O)Oc1ccc(OC(=O)c2ccc3c(c2)C(=O)N(*)C3=O)cc1 (repeat unit)
130.00 | *Oc1ccc(Oc2ccc(C(=O)c3ccc(NC(=O)CCCCCCCCC(=O)Nc4ccc(C(=O)c5ccc(*)cc5)cc4)cc3)cc2)cc1 (repeat unit)
200.00 | *Oc1c(C)cc(C(=O)c2ccc(*)cc2)cc1C (repeat unit)
172.00 | *Oc1ccc(S(=O)(=O)c2ccc(Oc3ccc(C(c4ccc(*)cc4)(C(F)(F)F)C(F)(F)F)cc3)cc2[Si](C)(C)C)c([Si](C)(C)C)c1 (repeat unit)
208.2 ± 12 | *c1ccc(Oc2cccc(Oc3ccc(N4C(=O)c5ccc(Oc6ccc7c(c6)C(=O)N(*)C7=O)cc5C4=O)cc3)c2)cc1 (repeat unit)
